Data: patent US11279733B2, “Peptide antibiotics” (priority 2017, dated 2022)
≈ marks a conversion by molar mass, not a printed value. Where two headings read alike, the source gives them in different places. Positions of bridges follow the written chain, without caps; N, C: chain ends. Non-standard residues stand in square brackets, D forms with d. Residues, ends and D or L forms follow the SMILES beside them. *: point of attachment. Benzoyl(4-OPh) = O=C(c1ccc(Oc2ccccc2)cc1)*; Decanoyl(3R-OH) = CCCCCCC[C@@H](O)CC(=O)*; dBip = N[C@H](Cc1ccc(-c2ccccc2)cc1)C(=O)O; Phe(4-NH2) = Nc1ccc(C[C@H](N)C(=O)O)cc1; X4 = CCCCCOc1ccc(C(=O)*)cc1; dDab = NCC[C@@H](N)C(=O)O; X8 = CC(C)CCCC(C)CC(=O)*; Dab = NCC[C@H](N)C(=O)O

Columns and labels:
[1] = tested on: K. pneumoniae ATCC 700603, MDR; details: ATCC 700603
Protocol: (§1) Bacteria were either obtained from American Type Culture Collection (ATCC; Manassas, Va., USA) or independent academic clinical isolate collections, as listed in Table 18 below. Bacteria were cultured in Nutrient broth (NB; Bacto Laboratories, catalogue No. 234000) or Mueller Hinton broth (MHB; Bacto Laboratories, catalogue No. 211443) at 37° C. overnight with shaking (˜180 RPM). A sample of each culture was then diluted 50-fold in fresh MHB and incubated at 37° C. for 2-3 h with shaking (˜180 RPM). Compound stock solutions were prepared as 0.64 mg/mL or 2.56 mg/mL in water. The compounds, at twice the final desired concentration, were serially diluted 2-fold across the wells of 96-well plates (Polystyrene, Corning, catalogue No. 3370). Mid-log phase bacterial cultures (after 2-3 h incubation) were diluted to a final concentration of 1×10^6 colony forming units (CFU)/mL, and 50 μL was added to each well giving a final cell density of 5×10^5 and a compound concentration range of 32 μg/mL to 0.015 μg/mL (128-0.06 μg/mL against P. aeruginosa PA9704).

A. baumannii GN_093 PmxR = details: GN 093 PmxR
Protocol: as §1

A. baumannii ATCC 19606 = details: ATCC 19606
Protocol: as §1

[2] = tested on: S. aureus ATCC 25923, MSSA; details: ATCC 25923
Protocol: as §1

[3] = tested on: P. aeruginosa GN_105, PmxR; details: GN 105, PmxR
Protocol: as §1

[4] = tested on: P. aeruginosa GN_043, PmxR; details: for MIC, P. aeruginosa FADDI-PA070, PmxR: Table 5
Protocol: as §1

[5] = tested on: K. pneumoniae GN_106, PmxR; details: GN 106, PmxR
Protocol: as §1

P. aeruginosa ATCC 27853 = details: ATCC 27853
Protocol: as §1

K. pneumoniae ATCC 13883 = details: ATCC 13883
Protocol: as §1

[6] = tested on: K. pneumoniae GN_102 PmxR; details: GN 102 PmxR
Protocol: as §1

[7] = tested on: K. pneumoniae ATCC BAA-2146, NDM-1 pos; details: ATCC BAA-2146
Protocol: as §1

E. coli ATCC 25922 = details: ATCC 25922
Protocol: as §1

Row | SMILES | MIC K. pneumoniae ATCC 700603, MDR [1] [µg/mL] | MIC A. baumannii GN_093 PmxR (A. baumannii GN_093 PmxR) [µg/mL] | MIC A. baumannii ATCC 19606 (A. baumannii ATCC 19606) [µg/mL] | MIC S. aureus ATCC 25923, MSSA [2] [µg/mL] | MIC P. aeruginosa GN_105, PmxR [3] [µg/mL] | MIC P. aeruginosa GN_043, PmxR [4] [µg/mL] | MIC K. pneumoniae GN_106, PmxR [5] [µg/mL] | MIC P. aeruginosa ATCC 27853 (P. aeruginosa ATCC 27853) [µg/mL] | MIC K. pneumoniae ATCC 13883 (K. pneumoniae ATCC 13883) [µg/mL] | MIC K. pneumoniae GN_102 PmxR [6] [µg/mL] | MIC K. pneumoniae ATCC BAA-2146, NDM-1 pos [7] [µg/mL] | MIC E. coli ATCC 25922 (E. coli ATCC 25922) [µg/mL] | other results
1 | CC(C)CCCC(C)CC(=O)N[C@H](CCN)C(=O)N[C@H]1CCNC(=O)[C@H](CC(C)C)NC(=O)[C@H](CCN)NC(=O)[C@H](CCN)NC(=O)[C@H](CC(C)C)NC(=O)[C@@H](Cc2ccccc2)NC(=O)[C@H](CCN)NC1=O (stereo partly drawn) [compound 6523, 3,7-dimethyloctanoic acid-D-Dab-cyc[L-Dab-L-Dab-D-Phe-L-Leu-L-Dab-L-Dab-L-Leu]] (X8-[dDab][Dab][Dab][dF]L[Dab][Dab]L; lactam 2-C) | 8 (≈ 7.78 µM) | 16 (≈ 15.6 µM) | >32 | 32 (≈ 31.1 µM) | 2 (≈ 1.94 µM) | 2 (≈ 1.94 µM) | 32 (≈ 31.1 µM) | 2 (≈ 1.94 µM) | 4 (≈ 3.89 µM) | 16 (≈ 15.6 µM) | 8 (≈ 7.78 µM) | 1 (≈ 0.972 µM) | 
2 | CC(C)C[C@@H]1NC(=O)[C@H](CCN)NC(=O)[C@H](CCN)NC(=O)[C@H](CC(C)C)NC(=O)[C@@H](Cc2ccccc2)NC(=O)[C@H](CCN)NC(=O)[C@@H](NC(=O)[C@@H](CCN)NC(=O)c2ccc(Oc3ccccc3)cc2)CCNC1=O [compound 6527, Ph-4-OPhCO-D-Dab-cyc[L-Dab-L-Dab-D-Phe-L-Leu-L-Dab-L-Dab-L-Leu]] ({Benzoyl(4-OPh)}-[dDab][Dab][Dab][dF]L[Dab][Dab]L; lactam 2-C) | 16 (≈ 14.9 µM) | >32 | >32 | >32 | 4 (≈ 3.74 µM) | 1 (≈ 0.934 µM) | >32 | 2 (≈ 1.87 µM) | 16 (≈ 14.9 µM) | 32 (≈ 29.9 µM) | 16 (≈ 14.9 µM) | 2 (≈ 1.87 µM) | 
3 | CCCCCOc1ccc(C(=O)N[C@H](CCN)C(=O)N[C@H]2CCNC(=O)[C@H](CC(C)C)NC(=O)[C@H](CCN)NC(=O)[C@H](CCN)NC(=O)[C@H](CC(C)C)NC(=O)[C@@H](Cc3ccccc3)NC(=O)[C@H](CCN)NC2=O)cc1 [compound 6528, 4-(pentyloxy)benzoic acid-D-Dab-cyc[L-Dab-L-Dab-D-Phe-L-Leu-L-Dab-L-Dab-L-Leu]] (X4-[dDab][Dab][Dab][dF]L[Dab][Dab]L; lactam 2-C) | 16 (≈ 15 µM) | 32 (≈ 30.1 µM) | >32 | 32 (≈ 30.1 µM) | 4 (≈ 3.76 µM) | 1 (≈ 0.94 µM) | 32 (≈ 30.1 µM) | 1 (≈ 0.94 µM) | 8 (≈ 7.52 µM) | >32 | 8 (≈ 7.52 µM) | 2 (≈ 1.88 µM) | 
4 | CCCCCCC[C@@H](O)CC(=O)N[C@@H](CCN)C(=O)N[C@@H]1CCNC(=O)[C@H](CC(C)C)NC(=O)[C@H](CCN)NC(=O)[C@H](CCN)NC(=O)[C@H](CC(C)C)NC(=O)[C@@H](Cc2ccc(-c3ccccc3)cc2)NC(=O)[C@H](CCN)NC1=O [compound 6661, 3(R)OH-nC9CO-L-Dab-cyc[D-Dab-L-Dab-D-Bip-L-Leu-L-Dab-L-Dab-L-Leu]] ({Decanoyl(3R-OH)}-[Dab][dDab][Dab][dBip]L[Dab][Dab]L; lactam 2-C) | 32 (≈ 28.6 µM) | >32 | >32 | 8 (≈ 7.14 µM) | 8 (≈ 7.14 µM) |  | >32 | 8 (≈ 7.14 µM) | 32 (≈ 28.6 µM) | >32 | 32 (≈ 28.6 µM) | 32 (≈ 28.6 µM) | MIC P. aeruginosa GN_043, PmxR ([4]; P. aeruginosa GN_043, PmxR): >32 µg/mL
5 | CCCCCCC[C@@H](O)CC(=O)N[C@H](CCN)C(=O)N[C@H]1CCNC(=O)[C@H](CC(C)C)NC(=O)[C@H](CCN)NC(=O)[C@H](CCN)NC(=O)[C@H](CC(C)C)NC(=O)[C@@H](Cc2ccccc2)NC(=O)[C@H](CCCNC(=N)N)NC1=O [compound 8634, 3(R)OH-nC9CO-D-Dab-cyc[L-Dab-L-Arg-D-Phe-L-Leu-L-Dab-L-Dab-L-Leu]] ({Decanoyl(3R-OH)}-[dDab][Dab]R[dF]L[Dab][Dab]L; lactam 2-C) |  |  |  |  |  |  |  |  |  |  |  |  | MIC, K. pneumoniae ATCC 700603, MDR [1]: 4 µg/mL (≈ 3.63 µM); MIC, A. baumannii Cl Ptyela 10073 4512:2, PmxR (A. baumannii GN_093 PmxR): 32 µg/mL (≈ 29.1 µM); MIC, A. baumannii ATCC 19606 (A. baumannii ATCC 19606): 16 µg/mL (≈ 14.5 µM); MIC, S. Aureus ATCC 25923, MSSA [2]: 16 µg/mL (≈ 14.5 µM); MIC, P. aeruginosa PA9704, PmxR [3]: 4 µg/mL (≈ 3.63 µM); MIC, P. aeruginosa FADDI-PA070, PmxR ([4]; polymyxin-resistant): 2 µg/mL (≈ 1.82 µM); MIC, K. pneumoniae Cl 138-16347-20362, PmxR [5]: 8 µg/mL (≈ 7.27 µM); MIC, P. aeruginosa ATCC 27853 (P. aeruginosa ATCC 27853): 4 µg/mL (≈ 3.63 µM); MIC, K. pneumoniae ATCC 13883 (K. pneumoniae ATCC 13883): 8 µg/mL (≈ 7.27 µM); MIC, K. pneumoniae Cl Koprana 10065 0661:1, PmxR [6]: 4 µg/mL (≈ 3.63 µM); MIC, K. pneumoniae ATCC BAA-2146, NDM-1 pos [7]: 8 µg/mL (≈ 7.27 µM); MIC, E. coli ATCC 25922 (E. coli ATCC 25922): 8 µg/mL (≈ 7.27 µM)
6 | CCCCCCC[C@@H](O)CC(=O)N[C@H](CCN)C(=O)N[C@H]1CCNC(=O)[C@H](CC(C)C)NC(=O)[C@H](CCN)NC(=O)[C@H](Cc2ccc(N)cc2)NC(=O)[C@H](CC(C)C)NC(=O)[C@@H](Cc2ccccc2)NC(=O)[C@H](CCN)NC1=O [compound 8642, 3(R)OH-nC9CO-D-Dab-cyc[L-Dab-L-DAB-D-Phe-L-Leu-L-4NH2Phe-L-Dab-L-Leu]] ({Decanoyl(3R-OH)}-[dDab][Dab][Dab][dF]L[Phe(4-NH2)][Dab]L; lactam 2-C) |  |  |  |  |  |  |  |  |  |  |  |  | MIC, K. pneumoniae ATCC 700603, MDR [1]: 4 µg/mL (≈ 3.62 µM); MIC, A. baumannii Cl Ptyela 10073 4512:2, PmxR (A. baumannii GN_093 PmxR): 16 µg/mL (≈ 14.5 µM); MIC, A. baumannii ATCC 19606 (A. baumannii ATCC 19606): 8 µg/mL (≈ 7.23 µM); MIC, S. Aureus ATCC 25923, MSSA [2]: 8 µg/mL (≈ 7.23 µM); MIC, P. aeruginosa PA9704, PmxR [3]: 8 µg/mL (≈ 7.23 µM); MIC, P. aeruginosa FADDI-PA070, PmxR ([4]; polymyxin-resistant): 8 µg/mL (≈ 7.23 µM); MIC, K. pneumoniae Cl 138-16347-20362, PmxR [5]: 4 µg/mL (≈ 3.62 µM); MIC, P. aeruginosa ATCC 27853 (P. aeruginosa ATCC 27853): 8 µg/mL (≈ 7.23 µM); MIC, K. pneumoniae ATCC 13883 (K. pneumoniae ATCC 13883): 4 µg/mL (≈ 3.62 µM); MIC, K. pneumoniae Cl Koprana 10065 0661:1, PmxR [6]: 2 µg/mL (≈ 1.81 µM); MIC, K. pneumoniae ATCC BAA-2146, NDM-1 pos [7]: 4 µg/mL (≈ 3.62 µM); MIC, E. coli ATCC 25922 (E. coli ATCC 25922): 4 µg/mL (≈ 3.62 µM)
7 | CCCCCCC[C@@H](O)CC(=O)N[C@H](CCN)C(=O)N[C@H]1CCNC(=O)[C@H](CC(C)C)NC(=O)[C@H](Cc2ccc(N)cc2)NC(=O)[C@H](CCN)NC(=O)[C@H](CC(C)C)NC(=O)[C@@H](Cc2ccccc2)NC(=O)[C@H](CCN)NC1=O [compound 8644, 3(R)OH-nC9CO-D-Dab-cyc[L-Dab-L-DAB-D-Phe-L-Leu-L-Dab-L-4NH2Phe-L-Leu]] ({Decanoyl(3R-OH)}-[dDab][Dab][Dab][dF]L[Dab][Phe(4-NH2)]L; lactam 2-C) | 8 (≈ 7.23 µM) | >32 | 16 (≈ 14.5 µM) | 32 (≈ 28.9 µM) | 8 (≈ 7.23 µM) |  | 8 (≈ 7.23 µM) | 8 (≈ 7.23 µM) | 8 (≈ 7.23 µM) | 2 (≈ 1.81 µM) | 4 (≈ 3.62 µM) | 16 (≈ 14.5 µM) | MIC P. aeruginosa GN_043, PmxR ([4]; polymyxin-resistant): 8 µg/mL (≈ 7.23 µM)
